# System: primary CLL cells from patient-derived blood (CD5+CD19+ tumor cells)
# Assay: Compound 1 in combination with obinutuzumab in B-cell CLL patient cells (ex vivo co-culture, flow cytometry, Caspase3)
# Format: cell-based, human
# Conditions: 144 h
# Procedure: Obinutuzumab (GA101) is a humanized, glycoengineered type 2 antibody targeted against CD20. […] The effect of treatment with Compound 1 in combination with obinutuzumab on the proliferation and survival of CLL B cells was assessed utilizing an ex vivo model where primary CLL cells from patient-derived blood were stimulated to proliferate with 10% fetal bovine serum (FBS), 5 ng/mL recombinant human interleukine-4 (rh IL-4), 10 ng/mL recombinant human interleukine-10 (rh IL-10) and co-cultured with fibroblast expressing surface CD154 (CD40L) in a 96 well plate format.
# Peripheral blood mononuclear cells (PBMCs) from CLL patients (Table 7) containing 52%-86% of CD5^+CD19^+ tumor cells were cultured at a density of 0.06-0.1×10^6 cells/well on a monolayer of CD154-expressing fibroblasts at a density of 0.09×10^6 cells/well in 96-well plates in RPMI 1640 medium supplemented with 10% FBS, 5 ng/mL rh IL-4 and 10 ng/mL rh IL-10. The cells were treated with vehicle control (0.1% DMSO) or increasing concentrations of Compound 1 ranging from 0.0001 to 1 μM and GA101 at concentrations ranging from 8 ng/mL to 5 ug/mL across all the different concentrations of Compound 1. After 144 h of treatment with both the agents, flow cytometric analysis was used to determine the number of tumor cells that were viable or apoptotic.
# The tumor cell count was assessed by staining the patient PBMCs in each condition with tumor cell surface markers CD5 & CD19 along with Live/Dead fixable dye to exclude the dead cells and followed by intracellular staining for Caspase3 antibody to identify the apoptotic cells and was measured by flow cytometry (Attune NxT, Thermo Fisher). The live tumor cell count for each condition was calculated by normalizing to the precision count beads added to each sample.
# The live tumor cell count was then normalized to the DMSO control (considered as 100% viable) to calculate the percentage of viable cells remaining after treatment. The normalized percentage of tumor cells was then represented as a heat map using Graph Pad Prism 8.0.0 to indicate the degree of tumor toxicity for each of the combinations (FIG. 1). Based on the data shown in FIG. 1, synergy/additivity calculations were performed using the HSA and Bliss Independence Model.
# For apoptosis analysis, the percentage of apoptosis combining both “early” (Caspase 3 positive and Live-Dead fixable dye negative) and “late” apoptosis (Caspase 3 and Live-Dead fixable dye positive) cell gates subtracting the baseline DMSO value was graphed using GraphPad Prism 8.0.0.0. The Ymax (maximal percentage of apoptosis achieved) values from apoptosis curves were calculated by performing a nonlinear regression curve fitting using log(agonist) vs. normalized response—Variable slope analysis and identifying the maximum value on GraphPad Prism 8.0.0 (Table 8).
substance,measurement,setting,value
"Obinutuzumab: humanized, glycoengineered type 2 antibody targeted against CD20",induction of apoptosis (in words),"CLL patient cells Pt 11-14, Table 8",induced apoptosis alone
same,Ymax of Pt 11 (%),"Pt 11, single agent (Cpd1 DRC with DMSO, or obinutuzumab alone), apoptosis (Caspase 3), DMSO baseline subtracted",27.98%
same,Ymax of Pt 12 (%),"Pt 12, single agent (Cpd1 DRC with DMSO, or obinutuzumab alone), apoptosis (Caspase 3), DMSO baseline subtracted",24.91%
same,Ymax of Pt 13 (%),"Pt 13, single agent (Cpd1 DRC with DMSO, or obinutuzumab alone), apoptosis (Caspase 3), DMSO baseline subtracted",35.87%
same,Ymax of Pt 14 (%),"Pt 14, single agent (Cpd1 DRC with DMSO, or obinutuzumab alone), apoptosis (Caspase 3), DMSO baseline subtracted",25.82%
